Key:
cyclooxygenase-2 (COX-2) = target: T1, cyclooxygenase-2 (COX-2) (Homo sapiens, UniProt P35354); experiment: cellular COX-2 inhibition assay (IL-1 induced human fibroblasts, PGE2 radioimmunoassay); format: cell-based; conditions: primary human fibroblasts induced with IL-1, 40 μM arachidonic acid
T1 construct: endogenous in cells; host or cells: primary human skin fibroblasts induced with IL-1
T1 sequence (P35354 18-604): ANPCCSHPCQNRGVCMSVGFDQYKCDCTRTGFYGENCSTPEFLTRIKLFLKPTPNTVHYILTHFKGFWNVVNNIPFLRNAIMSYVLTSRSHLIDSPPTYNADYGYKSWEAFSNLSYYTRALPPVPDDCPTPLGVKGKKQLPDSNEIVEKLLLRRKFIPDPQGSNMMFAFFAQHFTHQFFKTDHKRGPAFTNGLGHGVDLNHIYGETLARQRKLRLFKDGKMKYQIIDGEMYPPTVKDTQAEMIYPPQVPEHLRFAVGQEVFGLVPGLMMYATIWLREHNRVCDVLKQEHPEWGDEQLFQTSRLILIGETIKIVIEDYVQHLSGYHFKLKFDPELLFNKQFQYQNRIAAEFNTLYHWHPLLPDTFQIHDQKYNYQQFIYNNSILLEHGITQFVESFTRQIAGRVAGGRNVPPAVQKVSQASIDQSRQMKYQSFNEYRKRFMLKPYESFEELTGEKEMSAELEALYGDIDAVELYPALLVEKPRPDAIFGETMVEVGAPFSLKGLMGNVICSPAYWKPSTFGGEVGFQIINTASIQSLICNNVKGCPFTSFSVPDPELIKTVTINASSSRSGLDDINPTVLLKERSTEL
Procedure: (§1) Cyclooxygenase inhibition is determined in vitro using cellular assays for inhibition of both cyclooxygenase-1 and cyclooxygenase-2.
(§2) The cellular assays for testing cyclooxygenase inhibitors are based on the fact that the cyclooxygenase enzyme (prostaglandin H synthase) catalyzes the rate limiting step in prostaglandin synthesis from arachidonic acid. Two enzymes mediate the reaction: COX-1 is a constitutive form of the enzyme whereas COX-2 is induced in response to various growth factors and cytokines. Cell lines have been established which express one form of the enzyme: a human skin fibroblast line which can be induced with IL-1 to synthesize COX-2, and the kidney epithelial cell line 293 which has been stably transfected to constitutively express COX-1. Both isoforms metabolize arachidonic acid into the stable metabolite prostaglandin E2. Arachidonic acid can be added exogenously to increase output to easily measurable levels. The levels of prostaglandin E2 in the extracellular medium are assayed by radioimmunoassay as a measure of enzyme activity. The relative activities of each isoform are compared to assess compound selectivity.
(§3) In vitro cyclooxygenase-1 (COX-1) and cyclooxygenase-2 (COX-2) inhibition is determined in the cell-based assays in order to assess the in vitro activity and selectivity for COX-2 inhibition, using a prostaglandin E2 radioimmunoassay. The cells utilized are primary human fibroblasts induced with interleukin-1 to produce COX-2, and the human kidney epithelial cell line 293 stably transfected to produce COX-1 constitutively. Cells are plated out into well plates in which the assay is performed. Fibroblasts are stimulated to synthesize COX-2 by treatment overnight with IL-1; the 293 cells require no induction. Both cell lines are pre-treated with compound dilutions for 15 minutes at 37° C., then 40 μM arachidonic acid is added as exogenous substrate for the production of PGE2, which is measured in supernatant by radioimmunoassay. […]

gross gastric ulceration = experiment: gastric tolerability assay; format: in vivo; conditions: rat; 100 mg/kg p.o.; four hours after administration
Procedure: The gastric tolerability assay is used to assess gross ulceration in the rat, measured four hours after oral administration of the test compound. The test is carried out as follows: Rats are fasted overnight, administered compound in fortified cornstarch vehicle by gavage, and sacrificed by carbon dioxide inhalation four hours later. The stomachs are removed and gross gastric lesions counted and measured to give the total lesion length per rat. Each experiment contains the following groups (5–6 rats per group): vehicle control, test compounds, and diclofenac as a reference compound. Data are calculated as the mean number of ulcers in a group, the mean length of ulcers (mm) in the group and as the ulcer index (UI). UI=mean length of ulcers in a group×ulcer incidence where ulcer incidence is the fraction of animals in the group with lesions (100% incidence is 1).

intestinal permeability = experiment: intestinal tolerability (51Cr-EDTA intestinal permeability); format: in vivo; conditions: rat; 30 mg/kg p.o.; 51Cr-EDTA urinary excretion over 24 h
Procedure: Intestinal tolerability can be determined by measuring the effect on intestinal permeability. Lack of increase in permeability is indicative of intestinal tolerability. The method used is a modification of a procedure by Davies, et al., Pharm. Res. 1994; 11:1652–1656 and is based on the fact that excretion of orally administered ^51Cr-EDTA, a marker of small intestinal permeability, is increased by NSAIDs. Groups of rats (≧12/group) are administered a single, oral dose of test compound or vehicle by gastric intubation. Immediately following compound dose, each rat is administered ^51Cr-EDTA (5 μCi/rat) by gastric intubation. The rats are placed in individual metabolic cages and given food and water ad libitum. Urine is collected over a 24 hour period. Twenty-four hours after administration of ^51Cr-EDTA the rats are sacrificed. To quantify compound effect on intestinal permeability, the excreted ^51Cr-EDTA measured in the urine of compound treated rats is compared to the excreted ^51Cr-EDTA measured in the urine of vehicle treated rats. Relative permeability is determined by calculating the activity present in each urine sample as a percent of the administered dose after correcting for background radiation.

[1] = test system: pain threshold in yeast-inflamed paw; experiment: Randall-Selitto paw pressure assay; format: in vivo, rat; conditions: male Wistar rats; 10 mg/kg orally; 1 h after dosing
Procedure: The analgesic activity of the compounds of the invention is determined using the well-known Randall-Selitto assay.
The Randall-Selitto paw pressure assay measures antinociception (analgesic activity) in inflamed tissue by comparing the pressure threshold in the inflamed paw of the rat after oral administration of test drug with that in the inflamed paw of rats administered corn starch vehicle orally.
Groups of 10 male Wistar rats weighing 40–50 gms are fasted overnight prior to testing. Hyperalgesia is induced by the injection of 0.1 ml of a 20% suspension of Brewer's yeast with a 26 gauge needle into the subplantar region of the right hindpaw. The left paw is not injected and is used as the control paw for determination of hyperalgesia. Vehicle (Fortified corn starch suspension 3%) at 10 ml/kg, reference compound (diclofenac is run in every experiment at the same dose as test compounds) and test compounds at different doses suspended in vehicle at 10 ml/kg are administered orally 2 hours after the yeast injection. The threshold for paw withdrawal is quantified with a Basile Analgesy-meter 1 hour after oral administration of test compounds. The nociceptive threshold is defined as the force in grams at which the rat withdraws its foot or vocalizes. Either vocalization or foot withdrawal is recorded as a response.
The data are analyzed by comparing the mean pain threshold of the corn starch vehicle-treated group for the inflamed and non-inflamed paws to that of individual drug-treated rats. Individual rats in the drug-treated groups and positive control (diclofenac) group are called reactors if the individual pain threshold in each paw exceeds the control group mean threshold by two standard deviations of that mean. The mean pain thresholds of the inflamed paw in the control group are compared to the individual pain thresholds of the inflamed paw in the test drug group. The non-inflamed control mean pressure threshold is compared to the non-inflamed individual pressure thresholds in the test groups. Results are expressed as number of reactors in each test group (n=10) for inflamed and non-inflamed paws. Percentages are calculated by dividing number of reactors by total number of rats used for a compound.

cyclooxygenase-1 (COX-1) = target: T2, cyclooxygenase-1 (COX-1) (Homo sapiens, UniProt P23219); experiment: cellular COX-1 inhibition assay (293 cells stably transfected with COX-1, PGE2 radioimmunoassay); format: cell-based; conditions: 293 cells expressing COX-1; 30 μM compound
T2 construct: expressed in transfected cells; host or cells: human kidney epithelial cell line 293, stably transfected
T2 sequence (P23219 24-599, species assumed): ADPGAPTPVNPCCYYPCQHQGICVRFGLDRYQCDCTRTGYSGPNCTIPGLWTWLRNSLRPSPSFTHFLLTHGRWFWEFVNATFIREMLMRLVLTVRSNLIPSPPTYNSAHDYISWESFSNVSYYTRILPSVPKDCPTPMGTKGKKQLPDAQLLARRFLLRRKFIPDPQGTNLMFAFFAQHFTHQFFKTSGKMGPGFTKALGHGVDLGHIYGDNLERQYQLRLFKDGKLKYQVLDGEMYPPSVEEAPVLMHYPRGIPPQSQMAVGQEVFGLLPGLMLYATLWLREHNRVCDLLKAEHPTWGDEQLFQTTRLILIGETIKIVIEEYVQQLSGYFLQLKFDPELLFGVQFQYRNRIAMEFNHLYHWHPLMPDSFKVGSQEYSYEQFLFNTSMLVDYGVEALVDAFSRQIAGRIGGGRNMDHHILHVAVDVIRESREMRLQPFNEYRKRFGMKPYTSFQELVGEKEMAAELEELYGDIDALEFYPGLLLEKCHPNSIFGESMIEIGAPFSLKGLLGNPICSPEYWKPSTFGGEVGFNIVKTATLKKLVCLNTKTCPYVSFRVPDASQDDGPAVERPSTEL
Procedure: as §1, §2, §3

| IC50 (cyclooxygenase-2 (COX-2)) [nM] | COX-1 inhibition at 30 μM (cyclooxygenase-1 (COX-1)) | melting point [°C] | SMILES | gastric ulcerogenic effect (gross gastric ulceration) | effect on intestinal permeability (intestinal permeability) | pain threshold in the inflamed paw [1] | pain threshold in the non-inflamed paw [1] |
| --- | --- | --- | --- | --- | --- | --- | --- |
| ~130 | no significant COX-1 inhibition |  | Cc1ccc(Nc2c(F)cccc2Cl)c(CC(=O)O)c1 [1(d), 5-methyl-2-(2′-chloro-6′-fluoroanilino)phenylacetic acid] | essentially free of any gastric ulcerogenic effect | no effect or only a minimal effect | increase the pain threshold | no threshold elevation |
| ~7 | no significant COX-1 inhibition |  | CCc1ccc(Nc2c(F)c(F)cc(F)c2F)c(CC(=O)O)c1 [3(a), 5-ethyl-2-(2′, 3′,5′,6′-tetrafluoroanilino)phenylacetic acid] | essentially free of any gastric ulcerogenic effect | no effect or only a minimal effect | increase the pain threshold | no threshold elevation |
| ~250 | no significant COX-1 inhibition | 157 to 159 | Cc1ccc(Nc2c(F)cc(F)cc2Cl)c(CC(=O)O)c1 [Example 1(g), 5-methyl-2-(2′,4′-difluoro-6′-chloroanilino)phenylacetic acid] | essentially free of any gastric ulcerogenic effect | no effect or only a minimal effect | increase the pain threshold | no threshold elevation |

Source: patent US7115662B2, “Certain 5-alkyl-2-arylaminophenylacetic acids and derivatives” (Novartis AG, priority 1997, dated 2006)
